These results are taken from US7297796B2, “Sulfamoyl benzamide derivatives and methods of their use” (Adolor Corporation, priority 2004, dated 2007).

Test [1] has as its target T1, CB2 receptor (Homo sapiens, UniProt P34972).
T1 construct: expressed in transfected cells; membranes
The experiment in a line: hCB2-mediated [35S]GTPγS binding. Type of test: biochemical. Conditions: for EC50: agonist, read-out: in vitro CB2 receptor agonist potency EC50. Here is the method: (§1) EC50 values in functional assays were also derived from automated nonlinear regression analysis of sigmoidal titration curves using the three-parameter modification of the four-parameter equation.
(§2) Chinese hamster ovary cells (CHO-K1), stably transfected with either hCB1 or hCB2, were washed two times with cold PBS, scraped from 500 cm^2 tissue culture plates, and pelleted by centrifugation at 1000×g for 10 min. The supernatant was discarded and the pellet was resuspended in Tris assay buffer (50 mM Tris HCl, pH 7.8, containing 1.0 mM EGTA, 5.0 mM MgCl2, […], and 0.5 mg/mL aprotinin), homogenized with a Polytron homogenizer (Brinkmann) at a setting of 1 for 20 sec and centrifuged at 38,000×g for 20 min at 4° C. The pellet was resuspended in Tris assay buffer and aliquots of 1 mg protein/mL were stored at −80° C. for further use.
hCB2-Mediated [^35S]GTPγS binding was measured in the same way except the assay mixture contained […] and the incubation time was 6 hours. [^35S]GTPγS binding in rat cerebellar homogenate was determined in a mixture containing 40-60 pM [^35S]GTPγS, homogenate assay buffer (50 mM Tris-HCl, 3 mM MgCl2, 0.2 mM EGTA), 100 mM NaCl, 10 mM MgCl2, […], 20 μg homogenate protein/well and agonist in a total volume of 250 μL in 96 well Basic Flashplates (Perkin Elmer). After incubation at 30° C. for 2 hours, the plates were centrifuged at 800×g at 4° C. for 5 min and the radioactivity bound to the membrane was determined by scintillation spectrometry using the Topcount (Perkin Elmer).
In general terms: Binding of GTPγS marks nucleotide exchange on a G protein.

Test [2] concerns the target T2, CB1 receptor (Homo sapiens, UniProt P21554).
T2 construct: expressed in transfected cells; membranes
The test can be described thus: hCB1 receptor binding, [3H]CP55940 displacement. Particulars: human cloned CB1 receptor. Here is the method:
(§3) Ki values in receptor binding experiments were determined by Cheng-Prusoff correction of IC50 values derived from automated nonlinear regression analysis of sigmoidal titration curves using a three-parameter modification (slope set to 1.0) of the four-parameter equation described in Cheng, Y.-C. and W. H. Prusoff, Biochem. Pharmacol. 22:3099-3108 (1973) and DeLean et al., Am. J. Physiol. 235:E97-E102 (1978).
as §2
(§4) Binding assays were performed by incubating 0.2-0.6 nM (34,000-100,000 dpm) [^3H]CP55940 with membranes prepared from cells expressing cloned human CB1 or CB2 receptors in buffer A (50 mM Tris HCl, pH 7.0, 5.0 mM MgCl2, 1.0 mM EGTA and 1.0 mg/mL fatty acid free bovine serum albumin). After incubation for 60 min at room temperature for the hCB2 binding assay or 120 min at 30° C. for the hCB1 assay, the assays were filtered through GF/C filters that had been pre-soaked overnight in 0.5% (w/v) PEI and 0.1% BSA in water. The filters were rinsed 6 times with one mL of cold wash buffer (50 mM Tris HCl, pH 7.0, 5.0 mM MgCl2, 1.0 mM EGTA and 0.75 mg/mL fatty acid free bovine serum albumin), 30 μL of MicroScint 20 was added to each filter and the radioactivity on the filters determined by scintillation spectroscopy. Nonspecific binding was determined in the presence of 10 μM WIN55212-2.

Test [3] concerns the target T1, CB2 receptor. The test can be described thus: hCB2 receptor binding, [3H]CP55940 displacement. Particulars: human cloned CB2 receptor. As for the experimental part: as §3, §2, §4
Test [4] has as its system L5 SNL-induced tactile allodynia. The experiment in a line: Neuropathic pain assay: L5 SNL-induced tactile allodynia (von Frey). The class given is in vivo, rat. Conditions: L5 SNL rats, n = 7-8/group. As for the experimental part:
Male Sprague-Dawley rats (120-250 g, Harlan Laboratories, Columbus, Ohio) were housed in pairs and allowed free access to food and water throughout the study. Room temperature and humidity were maintained at 21° C. and 70%, respectively. Nerve injury was produced with tight ligation of the left L5 spinal nerve (Kim, S. H., and J. M. Chung, Pain, 50, 355-363 (1992); LaBuda, C. J. and Fuchs, P. N., Exp Neurol., 163, 490-494(2000); LaBuda, C. J. and Fuchs, P. N., Neurosci Letters, 290, 137-140(2000); LaBuda, C. J., Donahue, R., Fuchs, P. N., Pain, 94, 59-63, (2001)). Briefly, animals were placed in the prone position to access the left L4-L6 spinal nerves. Under magnification, approximately one third of the L6 transverse process was removed. The L5 spinal nerve was identified and carefully dissected free from the adjacent L4 spinal nerve and then tightly ligated using 6-0 silk suture. The wound was treated with an antiseptic solution, the muscle layer was sutured, and the wound was closed with wound clips. Sham-operated surgical controls were prepared in the same manner, but the L5 spinal nerve was not […]. All housing conditions and experimental procedures were performed in accordance with the ethical guidelines of the IASP and the Adolor Corporation Animal Care and Use Committee.
Seven to ten animals per group were used for all behavioral assays. After a 7-10 day post-surgical recovery, animals were tested for baseline sensitivity to tactile stimulation of both hindpaws. Allodynic animals were defined as animals having a threshold of less than 7.5 grams of pressure applied to the injured hindpaw. Tactile sensitivity was evaluated using von Frey monofilaments before and after treatment. […] Thirty minutes after treatment, tactile sensitivity was evaluated. Five to seven days later, animals were tested using a different compound. Each animal was tested three times with different compounds. All behavioral testing was performed between 9:00 AM and 5:00 PM in a well-illuminated room with white background noise.
Animals were placed in a Plexiglas chamber (20 cm×10.5 cm×40.5 cm) and habituated for 15 minutes. The chamber was positioned on top of a mesh screen so that von Frey monofilaments could be presented to the plantar surfaces of both hindpaws. Measurements of tactile sensitivity for each hindpaw were obtained using the up/down method (Dixon, W. J., Annu Rev Pharmacol Toxicol 20, 441-462, 1980) with seven von Frey monofilaments (0.04, 0.07, 0.16, 0.4, 1, 6, and 15 grams). Each trial started with a von Frey force of 0.4 g delivered to the right hindpaw and then the left hindpaw for approximately 1-2 sec each. If there was no withdrawal response, the next higher force was delivered. If there was a response, the next lower force was delivered. This procedure was performed until no response was made at the highest force (15 grams) or until four stimuli were administered following the initial response. The 50% paw withdrawal threshold for each paw was calculated using the following formula: [Xth]log=[vFr]log+ky where [vFr] is the force of the last von Frey filament used, k=0.2249 which is the average interval (in log units) between the von Frey monofilaments, and y is a value that depends upon the pattern of withdrawal responses (Dixon, Id.). […] Testing for tactile sensitivity was performed twice and the mean 50% withdrawal value assigned as the tactile sensitivity for the right and left paws for each animal.
Tactile sensitivity for both hindpaws before and after treatments were analyzed using one-way analysis of variance (ANOVA) followed by post-hoc comparisons (protected t-test) for group differences. An alpha level of 0.05 was used for all analyses.

For test [5], the target named is T2, CB1 receptor. The test can be described thus: hCB1-mediated stimulation of [35S]GTPγS binding. Conditions: agonist; read-out: in vitro CB1 receptor agonist potency EC50. The class given is biochemical. Here is the method:
as §1
Chinese hamster ovary cells (CHO-K1), stably transfected with either hCB1 or hCB2, were washed two times with cold PBS, scraped from 500 cm^2 tissue culture plates, and pelleted by centrifugation at 1000×g for 10 min. The supernatant was discarded and the pellet was resuspended in Tris assay buffer (50 mM Tris HCl, pH 7.8, containing 1.0 mM EGTA, 5.0 mM MgCl2, […], and 0.5 mg/mL aprotinin), homogenized with a Polytron homogenizer (Brinkmann) at a setting of 1 for 20 sec and centrifuged at 38,000×g for 20 min at 4° C. […]
hCB1-Mediated stimulation of [^35S]GTPγS binding was measured in a mixture containing 100-150 pM [^35S]GTPγS, 150 mM NaCl, 45 mM MgCl2, […], 0.4 mM DTT, 1 mM EGTA, 1 mg/mL fatty acid free BSA, 25 μg of membrane protein and agonist in a total volume of 250 μL of buffer A in 96 well Basic Flashplates (Perkin Elmer). After incubation at room temperature for 2 hours the plates were centrifuged at 800×g at 4° C. for 5 min and the radioactivity bound to the membranes was determined by scintillation spectrometry using the Topcount (Perkin Elmer).

The term IC50 denotes the concentration that gives 50% inhibition. Broadly, the Ki is a measure of affinity in units of concentration, obtained from inhibition or displacement. A high value points to a looser hold on the target. The EC50 is the concentration needed to bring the measured effect to its halfway point.

T2 sequence (P21554 whole entry): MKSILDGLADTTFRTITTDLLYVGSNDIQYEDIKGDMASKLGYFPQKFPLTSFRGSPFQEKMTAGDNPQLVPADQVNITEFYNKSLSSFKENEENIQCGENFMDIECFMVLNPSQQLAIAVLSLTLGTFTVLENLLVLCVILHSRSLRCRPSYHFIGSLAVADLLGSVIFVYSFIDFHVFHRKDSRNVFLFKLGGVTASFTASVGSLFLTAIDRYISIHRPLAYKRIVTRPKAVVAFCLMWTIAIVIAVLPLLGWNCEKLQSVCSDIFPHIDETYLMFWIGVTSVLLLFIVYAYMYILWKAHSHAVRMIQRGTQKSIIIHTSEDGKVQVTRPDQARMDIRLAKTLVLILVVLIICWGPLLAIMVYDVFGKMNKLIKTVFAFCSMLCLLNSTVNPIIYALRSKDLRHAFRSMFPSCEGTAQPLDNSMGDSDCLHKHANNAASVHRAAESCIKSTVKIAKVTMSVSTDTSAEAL
T1 sequence (P34972 whole entry): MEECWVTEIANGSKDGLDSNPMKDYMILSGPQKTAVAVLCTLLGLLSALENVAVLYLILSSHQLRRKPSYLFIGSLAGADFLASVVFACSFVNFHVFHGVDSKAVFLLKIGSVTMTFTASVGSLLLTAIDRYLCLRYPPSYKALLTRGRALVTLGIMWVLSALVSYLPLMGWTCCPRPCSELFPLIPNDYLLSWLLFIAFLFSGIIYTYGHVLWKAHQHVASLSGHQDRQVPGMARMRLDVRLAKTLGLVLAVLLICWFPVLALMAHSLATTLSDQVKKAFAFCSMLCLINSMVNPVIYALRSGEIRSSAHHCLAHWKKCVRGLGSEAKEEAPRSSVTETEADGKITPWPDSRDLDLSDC

As to `CN(Cc1ccccc1)S(=O)(=O)c1cc(C(=O)NC2C(C)(C)[C@@H]3CC[C@]2(C)C3)ccc1Br` (stereo in doubt) [Compound 23, 3-(Benzyl-methyl-sulfamoyl)-4-bromo-N-(1,3,3-tri-methyl-bicyclo[2.2.1]hept-2-yl)-benzamide], the IC50 on CB2 receptor [1] (antagonist, read-out: in vitro CB2 receptor antagonist potency IC50) is 13.7 nM. In addition, the Ki at CB1 receptor [2] was above 1000 nM; at CB2 receptor [3], 10.3 nM.
For `CN1CCCCC1Cn1cc(C(=O)c2cc([N+](=O)[O-])ccc2I)c2ccccc21` (centres unmarked) [AM1241, reference compound], in test [4] (3 mg/kg), the “Anti-Allodynia [%]” value is 27.5 ± 10.1%.
For `Cc1ccc(C(=O)N[C@H]2C(C)(C)[C@@H]3CC[C@@]2(C)C3)cc1S(=O)(=O)N1CCOCC1` [Compound 26, 4-Methyl-3-(morpholine-4-sul-fonyl)-N,S-(1,3,3-tri-methyl-bicyclo[2.2.1]-hept-2-yl)-benzamide], the EC50 at CB1 receptor [5] came out at 2000 nM; at CB2 receptor [1] it was 7.8 nM. Also, the Ki on CB1 receptor [2] turned out to be 121 nM; at CB2 receptor [3], 3.7 nM. Moreover, the “Anti-Allodynia [%]” value in test [4] (1 mg/kg) is given as 53.5 ± 14.2%; in test [4] (3 mg/kg) it was 61.7 ± 13.6 %; in test [4] (6 mg/kg), 61.1 ± 12.6 %; in test [4] (10 mg/kg), 44.0 ± 16.2%.
`Cc1c(C(=O)c2cccc3ccccc23)c2cccc3c2n1[C@H](CN1CCOCC1)CO3` [WIN, WIN 55,212-2, reference compound]: in test [4] (2.5 mg/kg), the “Anti-Allodynia [%]” value came to 75.2 ± 13.8%.
Regarding `CC1(C)[C@@H]2CC[C@@](C)(C2)[C@@H]1NC(=O)c1ccc(Br)c(S(=O)(=O)N2CCCCC2)c1` [Compound 17, 4-Bromo-3-(piperidine-1-sul-fonyl)-N-(1,3,3-tri-methylbicyclo[2.2.1]hept-2-yl)-benzamide], the EC50 came out at 326 nM on CB1 receptor [5] and 18.2 nM at CB2 receptor [1]. Further, the inhibitory constant (Ki) on CB1 receptor [2] was 93 nM; at CB2 receptor [3], 13.1 nM.
